Test results as given in article PMC9090415, “Discovery of small molecule inhibitors of Plasmodium falciparum apicoplast DNA polymerase” (Journal of Enzyme Inhibition and Medicinal Chemistry, 2022).

Biological target: P. falciparum apicoplast DNA polymerase (Pf-apPOL) (Plasmodium falciparum, UniProt Q8ILY1)
Assay: Fluorescence-based high-throughput DNA polymerase assay (molecular beacon), primary screen and dose-response
Type: biochemical
Conditions: for DNA Pol: unit not given, 90 min, 10 µM
Description: The HT assay employs a molecular beacon, a stem-loop DNA template with a Cy3 dye and the Black Hole Quencher on the 3′ and 5′ ends of the DNA, respectively. Pf-apPOL concentration is based on a calculated absorptivity of ε280 = 56750 M^−1 cm^−1. Reactions were carried out at 25 °C, using Corning 3575 […] (well-volume, 20 µL). Assays testing for compound inhibition composed of reaction buffer (pH 7.9 in 50 mM potassium acetate, 20 mM Tris-acetate and 10 mM magnesium acetate), Pf-apPOL (20 nM), DNA substrate (20 nM), dNTPs (6 µM), and compound (10 µM in DMSO). The DNA and nucleotide substrates (dNTPs) were at concentrations of 20 nM and 6 µM, respectively, in the assay. Pf-apPOL was incubated in the reaction buffer with dNTPs and the compound of interest (10 µM, in the assay) at 25 °C for 10 min. The DNA substrate was then added and the reaction was allowed to proceed for 90 min at 25 °C.
Each assay plate contained 16 negative controls (no Pf-apPOL, DMSO present) and 16 positive controls (Pf-apPOL present, no DMSO). The fluorescence of each well was determined using a BioTek Synergy Neo fluorescence plate reader using excitation and emission wavelengths of 555 and 570 nm, respectively.
In the above, Min is the average of fluorescence emission of the negative controls (substrate only), Max the average fluorescence emission from the positive controls (enzyme + substrate), and Test the emission from the assays in the presence of compounds (enzyme + compound + substrates). […] […] The IC50 of each compound was determined using Equation (2): (2) IC50= Vmax/(1+ (I/IC50)^n)
In the above, n measures cooperativity, with n > 1 indicating synergistic binding of more than a single molecule of the compound.
To identify apPOL inhibitors we utilised our previously developed high-throughput DNA polymerase assay. The HT assay is based on a molecular beacon DNA template that forms a stem-loop with a Cy3 dye and the Black Hole Quencher on the 3′ and 5′ ends of the DNA, respectively. DNA polymerase activity extends an annealed primer through the stem region, displacing the fluorophore from the quencher, thereby increasing its fluorescence (Figure 1(A)). The assay accurately recapitulates the kinetic behaviour of apPOL, as measured through more conventional low-throughput gel-based assays. The Z′ factor for the assay described here was 0.9 across all plates (data not shown).
Figure 1. High-throughput screening. (A) The fluorescent-based DNA polymerase assay used to screen the compound libraries. The DNA template strand is a hairpin loop with a primer annealed to the loop. The 3’ end of the primer is 11 bases away from the 6 bp duplex. Strand displacement activity of the DNA polymerase separates the Cy3 dye from the Black hole quencher leading to an increase in fluorescent signal. (B) The high-throughput assay workflow. The DNA polymerase is incubated with […] compound for 10 min prior to addition of the hairpin substrate. The reaction is quenched at 3 different time points and the fluorescent signal is measured and % inhibition is determined using the provided equation.

P. falciparum apicoplast DNA polymerase (Pf-apPOL), sequence (Q8ILY1 entry or part of it): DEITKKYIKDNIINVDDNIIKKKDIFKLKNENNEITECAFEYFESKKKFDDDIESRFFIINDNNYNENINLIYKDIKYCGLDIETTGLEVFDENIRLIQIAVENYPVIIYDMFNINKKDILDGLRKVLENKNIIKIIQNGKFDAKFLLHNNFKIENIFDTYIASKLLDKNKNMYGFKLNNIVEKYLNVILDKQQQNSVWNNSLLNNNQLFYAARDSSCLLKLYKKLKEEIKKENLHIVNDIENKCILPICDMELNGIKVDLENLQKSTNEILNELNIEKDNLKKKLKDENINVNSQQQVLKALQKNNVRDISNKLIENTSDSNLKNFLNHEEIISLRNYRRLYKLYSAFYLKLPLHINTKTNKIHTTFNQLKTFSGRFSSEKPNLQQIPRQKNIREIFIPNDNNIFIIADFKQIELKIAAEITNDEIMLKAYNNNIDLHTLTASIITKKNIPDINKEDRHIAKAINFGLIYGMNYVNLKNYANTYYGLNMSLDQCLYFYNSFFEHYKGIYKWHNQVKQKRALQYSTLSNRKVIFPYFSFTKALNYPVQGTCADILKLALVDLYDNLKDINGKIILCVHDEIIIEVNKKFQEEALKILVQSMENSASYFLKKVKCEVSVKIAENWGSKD

SMILES: O=C(Cn1ccc2c(=O)[nH]ccc21)Nc1ccc(Cl)cc1 [Molecule 36, O=C(Cn1ccc2c1cc[nH]c2=O)Nc1ccc(cc1)Cl]
- % inhibition Apo pol 10' (DRC-1, concentration 2.5): 6.801%
- % inhibition Apo pol 10' (DRC-1, concentration 5): 22.3776%
- % inhibition Apo pol 10' (DRC-1, concentration 10): 24.792%
- % inhibition Apo pol 10' (DRC-1, concentration 20): 79.2996%
- % inhibition Apo pol 10' (DRC-1, concentration 40): 82.0585%
- % inhibition Apo pol 10' (DRC-1, concentration 80): 79.648%
- % inhibition Apol 90' (DRC-1, 90', concentration 2.5): -0.4643%
- % inhibition Apol 90' (DRC-1, 90', concentration 5): 11.3565%
- % inhibition Apol 90' (DRC-1, 90', concentration 10): 14.0157%
- % inhibition Apol 90' (DRC-1, 90', concentration 20): 73.6159%
- % inhibition Apol 90' (DRC-1, 90', concentration 40): 79.7069%
- % inhibition Apol 90' (DRC-1, 90', concentration 80): 82.9478%
- % inhibition apPOL 180' (DRC-1, 180', concentration 2.5): -6.005%
- % inhibition apPOL 180' (DRC-1, 180', concentration 5): 0.9781%
- % inhibition apPOL 180' (DRC-1, 180', concentration 10): 3.9308%
- % inhibition apPOL 180' (DRC-1, 180', concentration 20): 61.1275%
- % inhibition apPOL 180' (DRC-1, 180', concentration 40): 73.0225%
- % inhibition apPOL 180' (DRC-1, 180', concentration 80): 82.2877%
- % inhibition Apo pol 5' (DRC-2, 5', concentration 10 (unit not given)): 44%
- % inhibition Apo pol 5' (DRC-2, 5', concentration 20 (unit not given)): 44%
- % inhibition Apol 40' (DRC-2, 40', concentration 10 (unit not given)): 57%
- % inhibition Apol 40' (DRC-2, 40', concentration 20 (unit not given)): 63%
- % inhibition Apol 40' (DRC-2, 40', concentration 40 (unit not given)): 63%
- % inhibition ApPOL 90' (DRC-2, 90', concentration 5 (unit not given)): 20%
- % inhibition ApPOL 90' (DRC-2, 90', concentration 10 (unit not given)): 57%
- % inhibition ApPOL 90' (DRC-2, 90', concentration 40 (unit not given)): 67%
- % inhibition apPOL 180' (DRC-2, 180', concentration 20 (unit not given)): 63%
- % inhibition apPOL 180' (DRC-2, 180', concentration 80 (unit not given)): 67%
- % inhibition Apo pol 5' (DRC-2, 5', concentration 2.5): 0%
- % inhibition Apo pol 5' (DRC-2, 5', concentration 5): 20%
- % inhibition Apo pol 5' (DRC-2, 5', concentration 5 (unit not given)): 20%
- % inhibition Apo pol 5' (DRC-2, 5', concentration 10): 44%
- % inhibition Apo pol 5' (DRC-2, 5', concentration 20): 44%
- % inhibition Apo pol 5' (DRC-2, 5', concentration 40): 41%
- % inhibition Apo pol 5' (DRC-2, 5', concentration 80): 30%
- % inhibition Apol 40' (DRC-2, 40', concentration 2.5): -0.111%
- % inhibition Apol 40' (DRC-2, 40', concentration 5): 24%
- % inhibition Apol 40' (DRC-2, 40', concentration 10): 57%
- % inhibition Apol 40' (DRC-2, 40', concentration 20): 63%
- % inhibition Apol 40' (DRC-2, 40', concentration 40): 63%
- % inhibition Apol 40' (DRC-2, 40', concentration 80): 56%
- % inhibition ApPOL 90' (DRC-2, 90', concentration 2.5): -2%
- % inhibition ApPOL 90' (DRC-2, 90', concentration 5): 20%
- % inhibition ApPOL 90' (DRC-2, 90', concentration 10): 57%
- % inhibition ApPOL 90' (DRC-2, 90', concentration 20): 66%
- % inhibition ApPOL 90' (DRC-2, 90', concentration 40): 67%
- % inhibition ApPOL 90' (DRC-2, 90', concentration 80): 61%
- % inhibition apPOL 180' (DRC-2, 180', concentration 2.5): -7%
- % inhibition apPOL 180' (DRC-2, 180', concentration 5): 11%
- % inhibition apPOL 180' (DRC-2, 180', concentration 10): 48%
- % inhibition apPOL 180' (DRC-2, 180', concentration 20): 63%
- % inhibition apPOL 180' (DRC-2, 180', concentration 40): 69%
- % inhibition apPOL 180' (DRC-2, 180', concentration 80): 67%
- DNA Pol (primary screen value of the 186 hits): 46
- DNA Pol (primary screen value, head "DNA Pol"): 46
